Literature values as cited in patent US7803960B2, “Phenyloxyaniline derivatives” (Bayer Schering Pharma Aktiengesellschaft, priority 2006, dated 2010).

Experiments:
[1] = system: Peripheral benzodiazepine receptor (PBR); settings: compared with [^11C]PK11195 (1)
[2] = compared with [^11C]PK11195 (1)
PBRs = target: T1, PBRs (Homo sapiens, UniProt P30536); settings: C-11 isotope labeled version, in vivo imaging
T1 construct: host or cells: brain, in vivo
T1 sequence (P30536 whole entry): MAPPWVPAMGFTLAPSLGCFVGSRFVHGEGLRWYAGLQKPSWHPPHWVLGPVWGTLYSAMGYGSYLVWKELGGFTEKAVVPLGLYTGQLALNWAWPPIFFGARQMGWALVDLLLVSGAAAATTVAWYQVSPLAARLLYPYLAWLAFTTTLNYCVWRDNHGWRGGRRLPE

Row | SMILES | binding affinity to PBR [1] | accumulation in the brain [2] | signal in the brain (PBRs)
1 | COc1ccc(O[11CH3])c(CN(C(C)=O)c2cc(F)ccc2Oc2ccccc2)c1 [Compound 2] | higher | higher | –
2 | COc1ccc(OCC[18F])c(CN(C(C)=O)c2cc(F)ccc2Oc2ccccc2)c1 [Compound 3, N-(5-Fluoro-2-phenoxyphenyl)-N-(2-(2-[^18F]fluoroethoxy)-5-methoxybenzyl)acetamide] | higher | higher | –
3 | CC[C@@H](C)N(C)C(=O)c1cc2ccccc2c(-c2ccccc2Cl)n1 [PK11195] | – | – | not high enough for stable quantitative analysis
